Among the data in PubChem BioAssay (NCI) are TGI values, retold here.

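Grown in 96-well plates, cells were treated for 48 hours with each compound at five concentrations. Insufficient inhibition: endpoint recorded as highest concentration tested. TGI is the concentration that stops growth completely.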

Holding throughout (test): NCI tumour cell line growth inhibition, 48 h
Test [1] has as its system A498 renal.
For test [2], the system named is CCRF-CEM leukemia.
The test system of test [3] is HCC-2998 colon.
Test [4] has as its system HCT-116 colon.
Test [5] relates to HCT-15 colon.
For test [6], the system named is IGROV1 ovarian.
Test [7] deals with MOLT-4 leukemia.
Test [8] relates to NCI-H226 lung.
Test [9] has as its system NCI-H23 lung.
Test [10] relates to RXF 393 renal.
Test [11] concerns SK-MEL-28 melanoma.
Test [12] deals with SK-MEL-5 melanoma.
Test [13] has as its system SNB-75 CNS.
Test [14] deals with UACC-257 melanoma.
In test [15] the test system is UACC-62 melanoma.
The test system of test [16] is UO-31 renal.
In test [17] the test system is DU-145 prostate.

Turning to `COC(=O)C(=O)C(C(=O)OC)C(=O)C(=O)Nc1cc(Cl)c(Cl)cc1Cl` (stereo not given), the TGI in test [1] is greater than 100 µM; in test [2] it was greater than 100 µM; in test [3] it was greater than 100 µM; in test [4] it was 75.8 µM; in test [5] it was greater than 100 µM; in test [6], greater than 100 µM. For the same compound, the TGI in test [7], in test [8], in test [9], in [10], in test [11] and in test [12] was greater than 100 µM in each case. For the same compound, the TGI in test [13], in [14], in test [15] and in test [16] was greater than 100 µM throughout.

As to `Nc1ncnc2c1ncn2C1CC(OC2CCCCO2)C(CO)O1` (stereo not given), the TGI in test [1], in test [2], in test [3], in test [4], in test [5] and in test [6] was greater than 100 µM each time. The TGI in [7], in test [8], in test [9], in test [10], in test [11] and in test [14] was greater than 100 µM in each case. Moreover, the TGI in test [16] is greater than 100 µM.

On to `Cc1cc(=O)[nH]c(NNC(C#N)c2ccco2)n1` (stereo not given), for which the TGI in [2], in [4], in [5], in test [6], in [7] and in test [8] was greater than 100 µM in each case. For the same compound, the TGI in [9], in test [10], in test [11], in test [12], in [13] and in [14] was greater than 100 µM each time. Moreover, the TGI in test [15] and in test [16] was greater than 100 µM throughout.

As for `CC1=C2CN(C(=O)OCC(C)C)CCC2C2=C(C(=O)c3ccccc3C2=O)C1C` (stereo not given), the TGI in test [2], in test [17], in test [3], in test [5], in [6] and in [7] was greater than 10 µM throughout. Moreover, the TGI in [9], in test [10], in [11], in test [12], in test [13] and in test [14] was greater than 10 µM each time. This compound showed a TGI in test [15] greater than 10 µM.

`O=C1NC2C(CCO)CC=C[C@H]2c2cc3c(cc21)OCO3` (stereo not given in full): the TGI in [2], in test [4], in [5], in test [6], in test [7] and in [8] was greater than 100 µM in each case. The TGI in test [9], in test [10], in [11], in [13], in test [14] and in [15] was greater than 100 µM throughout. The compound also showed a TGI in [16] greater than 100 µM.

For the compound `C/C(=N/NC(N)=S)C(CN(C)C)C(C1=C(O)c2ccccc2OC1)c1ccccc1` (stereo not given), the TGI in test [1], in [2], in test [3], in [4], in [5] and in [6] was greater than 100 µM in each case. In addition, the TGI in test [7], in test [8], in [9], in test [10], in test [11] and in [12] was greater than 100 µM each time. Also, the TGI in test [13], in test [14], in [15] and in test [16] was greater than 100 µM in each case.

`CCOC(=O)c1cc2cc(C)cc(C(=O)c3ccc([N+](=O)[O-])cc3)c2[nH]1`: the TGI in test [1], in [17], in test [3], in test [4], in [5] and in test [6] was greater than 100 µM in each case. Moreover, the TGI in [7], in test [8], in [9], in [10], in [11] and in [12] was greater than 100 µM throughout. Further, the TGI in test [13], in test [14], in test [15] and in [16] was greater than 100 µM in each case.

Take `COc1ccc(C2S/C(=C\c3ccccc3)C(=O)N2NC(=O)Cc2ccccc2)cc1` (stereo not given): the TGI in test [1], in test [2], in [4], in test [5], in [6] and in test [7] was greater than 100 µM in each case. Besides, the TGI in test [8], in test [9], in test [10], in [11], in test [12] and in test [13] was greater than 100 µM throughout. In addition, the TGI in test [14], in test [15] and in test [16] was greater than 100 µM throughout.

For `CN1N=C2c3ccccc3CC[C@H]2C1c1cccc(O)c1` (stereo not given in full), the TGI in [1], in [2], in test [3], in [4], in test [5] and in test [6] was greater than 100 µM throughout. Moreover, the TGI in test [7], in test [8], in test [9], in [10], in [11] and in test [14] was greater than 100 µM each time. Besides, the TGI in test [15] and in test [16] was greater than 100 µM in each case.
